According to ChEMBL document CHEMBL1135348, “Synthesis and anticancer evaluation of vitamin K(3) analogues” (Bioorg Med Chem Lett, 2002):

Experiments:
WI-38 = experiment: Concentration required for 50% inhibition of growth in normal human lung fibroblast (WI-38 cell line) cell line was determined; assay type: functional, cell-based
MKN-45 = experiment: Concentration required for 50% inhibition of growth in human stomach adenocarcinoma (MKN45) cell line was determined; assay type: functional, cell-based
Detroit 551 [1] = experiment: Concentration required for 50% inhibition of growth in normal human embryonic skin fibroblast (Detroit551c) cell line was determined; assay type: functional, cell-based
HepG2 = experiment: Concentration required for 50% inhibition of growth in human liver hepatoblastoma (Hep G2) cell line was determined; assay type: functional, cell-based
SW480 = experiment: Concentration required for 50% inhibition of growth in human colon adenocarcinoma (SW-480) cell line.; assay type: functional, cell-based
MES-SA = experiment: Concentration required for 50% inhibition of growth in human uterine sarcoma (MES-SA) cell line was determined; assay type: functional, cell-based
NPC-TW-039 = experiment: Concentration required for 50% inhibition of growth in human nasopharyngeal carcinoma (TW-039) cell line was determined
A549 = experiment: Concentration required for 50% inhibition of growth in human lung carcinoma cell line was determined; assay type: functional, cell-based
MCF7 = experiment: Concentration required for 50% inhibition of growth in mammary gland breast adenocarcinoma (MCF-7) cell line was determined; assay type: functional, cell-based; details: Homo sapiens
[2] = Concentration required for 50% inhibition of growth in human multidrug resistance uterine sarcoma (MES-SA/Dx5 ) cell line was determined; assay type: functional, cell-based
[3] = Dose required for 50% inhibition of growth of Hep3B cells; assay type: functional, Hep 3B2; details: Homo sapiens, read-out: ID50 (the source's name)
Detroit 551 [4] = experiment: Concentration required for 50% inhibition of growth in normal human embryonic skin fibroblast cell line was determined; assay type: functional, cell-based

**Q.** For `CC1=C(SCCCO)C(=O)c2ccccc2C1=O`, which IC50 (WI-38) is on record?
**A.** Its IC50 is > 10 µM.

**Q.** And the IC50 (MKN-45)?
**A.** The IC50 was 6.4 µM.

**Q.** What about the IC50 (Detroit 551 [1]) of the same molecule?
**A.** Its IC50 is 5.26 µM.

**Q.** And the IC50 (HepG2)?
**A.** Its IC50 is 9.53 µM.

**Q.** And the IC50 (SW480)?
**A.** The IC50 was 4.85 µM.

**Q.** And the IC50 (MES-SA)?
**A.** Its IC50 is > 10 µM.

**Q.** What about the IC50 (NPC-TW-039) of the same molecule?
**A.** The IC50 was > 10 µM.

**Q.** What about the IC50 (A549) of the same molecule?
**A.** Its IC50 is > 10 µM.

**Q.** What about the IC50 (MCF7) of the same molecule?
**A.** Its IC50 is 5.16 µM.

**Q.** And the IC50 [2]?
**A.** Its IC50 is > 10 µM.

**Q.** For `CCCCC1=C(C)C(=O)c2ccccc2C1=O`, which IC50 [3] is on record?
**A.** Its IC50 is 78 µM.

**Q.** Which results are given for `CC1=C(SCCCCO)C(=O)c2ccccc2C1=O`?
**A.** IC50 (WI-38): > 10 µM; IC50 (MKN-45): 6.78 µM; IC50 (HepG2): > 10 µM; IC50 (SW480): 4.51 µM; IC50 (MES-SA): > 10 µM; IC50 (NPC-TW-039): > 10 µM; IC50 (A549): > 10 µM; IC50 (Detroit 551 [4]): 7.57 µM; IC50 (MCF7): 5.78 µM; IC50 [2]: > 10 µM

**Q.** Which results are given for `CC1=C(SCCCCCCO)C(=O)c2ccccc2C1=O`?
**A.** IC50 (WI-38): > 10 µM; IC50 (MKN-45): > 10 µM; IC50 (HepG2): > 10 µM; IC50 (SW480): > 10 µM; IC50 (MES-SA): > 10 µM; IC50 (NPC-TW-039): > 10 µM; IC50 (A549): > 10 µM; IC50 (Detroit 551 [4]): > 10 µM; IC50 (MCF7): 9.28 µM; IC50 [2]: > 10 µM

**Q.** For `CCCCCCCCSC1=C(C)C(=O)c2ccccc2C1=O`, which IC50 [3] is on record?
**A.** Its IC50 is 100 µM.

**Q.** Which IC50 (WI-38) does the source give for `CC1=C(SCCO)C(=O)c2ccccc2C1=O` here?
**A.** Its IC50 is 7.37 µM.

**Q.** What about the IC50 (MKN-45) of the same molecule?
**A.** The IC50 was 5.16 µM.

**Q.** And the IC50 (Detroit 551 [1])?
**A.** Its IC50 is 8.17 µM.

**Q.** What about the IC50 (HepG2) of the same molecule?
**A.** Its IC50 is 8.4 µM.

**Q.** And the IC50 (SW480)?
**A.** Its IC50 is 5.14 µM.

**Q.** And the IC50 (MES-SA)?
**A.** The IC50 was > 10 µM.

**Q.** And the IC50 (NPC-TW-039)?
**A.** Its IC50 is > 10 µM.

**Q.** What about the IC50 (A549) of the same molecule?
**A.** The IC50 was > 10 µM.

**Q.** And the IC50 [3]?
**A.** The IC50 was 5.6 µM.

**Q.** And the IC50 (MCF7)?
**A.** The IC50 was 5.19 µM.

**Q.** What about the IC50 [2] of the same molecule?
**A.** The IC50 was > 10 µM.

**Q.** Which IC50 [3] does the source give for `CCCCOC1=C(C)C(=O)c2ccccc2C1=O` here?
**A.** Its IC50 is 55 µM.

**Q.** For `CCCCCCCCOC1=C(C)C(=O)c2ccccc2C1=O`, which IC50 [3] is on record?
**A.** The IC50 was 140 µM.

**Q.** Which IC50 (WI-38) does the source give for `CC1=C(SC(C)C(C)O)C(=O)c2ccccc2C1=O` (stereo not drawn) here?
**A.** The IC50 was > 10 µM.

**Q.** What about the IC50 (MKN-45) of the same molecule?
**A.** The IC50 was 5.64 µM.

**Q.** What about the IC50 (HepG2) of the same molecule?
**A.** The IC50 was > 10 µM.

**Q.** And the IC50 (SW480)?
**A.** The IC50 was 5.53 µM.

**Q.** What about the IC50 (MES-SA) of the same molecule?
**A.** The IC50 was > 10 µM.

**Q.** And the IC50 (NPC-TW-039)?
**A.** Its IC50 is > 10 µM.

**Q.** What about the IC50 (A549) of the same molecule?
**A.** Its IC50 is > 10 µM.

**Q.** What about the IC50 (Detroit 551 [4]) of the same molecule?
**A.** The IC50 was > 10 µM.

**Q.** And the IC50 (MCF7)?
**A.** Its IC50 is > 10 µM.

**Q.** And the IC50 [2]?
**A.** Its IC50 is > 10 µM.

**Q.** With `CCCSC1=C(C)C(=O)c2ccccc2C1=O` as the molecule, how does the IC50 [3] read?
**A.** The IC50 was 14 µM.

**Q.** For `CCCCSC1=C(C)C(=O)c2ccccc2C1=O`, which IC50 [3] is on record?
**A.** Its IC50 is 15 µM.

**Q.** For `CC1=C(SCC(C)O)C(=O)c2ccccc2C1=O` (racemic), which IC50 (WI-38) is on record?
**A.** The IC50 was 5.06 µM.

**Q.** What about the IC50 (MKN-45) of the same molecule?
**A.** Its IC50 is 3.92 µM.

**Q.** What about the IC50 (Detroit 551 [1]) of the same molecule?
**A.** The IC50 was 4.61 µM.

**Q.** And the IC50 (HepG2)?
**A.** Its IC50 is 5.59 µM.

**Q.** And the IC50 (SW480)?
**A.** The IC50 was 5.19 µM.

**Q.** What about the IC50 (MES-SA) of the same molecule?
**A.** Its IC50 is 7.11 µM.

**Q.** What about the IC50 (NPC-TW-039) of the same molecule?
**A.** Its IC50 is > 10 µM.

**Q.** What about the IC50 (A549) of the same molecule?
**A.** The IC50 was 4.74 µM.

**Q.** And the IC50 (MCF7)?
**A.** Its IC50 is 4.61 µM.

**Q.** What about the IC50 [2] of the same molecule?
**A.** Its IC50 is 5.1 µM.

**Q.** With `CC1=CC(=O)c2ccccc2C1=O` [MENADIONE] as the molecule, how does the IC50 [3] read?
**A.** Its IC50 is 10 µM.
